“Also recorded” adds a separate entry of the source.

Consider one molecule from patent US10226514B2, “Methods and compositions for reducing blood glucose levels” (The Children's Medical Center Corporation, priority 2011, dated 2019).

Test [1] relates to XBP1s. Nature of the test: XBP1s protein levels in Ad-XBP1s-infected MEFs (western blot). It counts as cell-based, mouse. Here is the method:
(§1) MEF cells were from American Type Tissue Collection (ATCC). These cells were grown in Dulbecco's Modified Eagel Medium (DMEM) supplemented with 10% fetal bovine serum (FBS), 10 U/ml penicillin and 1 μg/ml streptomycin at 37° C. and 5% CO2. Fao cells were maintained in RPMI 1640 medium (Invitrogen) supplemented with 10% fetal bovine serum (FBS), 10 U/ml penicillin and 1 μg/ml streptomycin.
(§2) Adenovirus expressing XBP1s T48A, XBP1s S61A, XBP1s T48A/S61A and MKK6Glu were produced with ViraPower Adenoviral Expression System (Invitrogen) according to manufacturer's instruction. Briefly, pAD-XBP1s T48A, pAD-XBP1s S61A, pAd-XBP1s T48A/S61A and pAd-MKK6Glu were linearized by restriction endonuclease digestion with PacI and transfected to 293A cells by Lipofectamine. The media was changed with fresh media every other day until the cytopathic effect was observed. When cytopathic effect reached to 80%, cells were collected by centrifugation. The pellet was resuspended in PBS and subjected to freezing and thawing cycles at −80° C. and 37° C. for 4 times. The supernatant containing the virus was prepared by centrifugation at 4,000 rpm for 20 min at room temperature. Ad-XBP s and Ad-Cre were generated as described previously (Ozcan, L., et al. (2009) Cell metabolism 9:35-51). For infection, cells were incubated with adenovirus in reduced volume of medium containing 1% FBS and antibiotics. Cells were gently rocked every 15 min for 1 h to increase efficiency of infection, and then fresh medium were added and cells were incubated for additional 15 h or 23 h.
Cells were lysed in lysis buffer (25 mM Tris-HCl, pH 7.4; 10 mM NaF; 10 mM Na4P207; 2 mM Na3VO4; 1 mM EGTA; 1 mM EDTA; 1% NP-40; 10 μg/ml Leupeptin; 10 μg/ml Aprotinin; 1 mM PMSF and 20 nM Okadaic acid). After 20 min-rotation at 4° C., cell lysates were centrifuged at 13,200 rpm for 20 min at 4° C. Supernatants were collected and protein concentration was quantified by using Protein Assay Kit (Bio-Rad). The concentrations of protein were normalized with lysis buffer to have equivalent amounts of protein and volume. Protein was denatured by boiling at 100° C. for 5 min in Laemmli buffer. The lysates were cooled to room temperature before loading for western blot analysis.
Western blot analysis was performed as previously described (Ozcan, L., et al. (2009) Cell metabolism 9:35-51). Samples from cell lysates or tissue lysates were resolved by SDS-PAGE and then transferred to polyvinylidene fluoride (PVDF) membrane. After 1 h blocking at room temperature using 10% blocking reagent (Roche), membrane was incubated overnight with primary antibody in Tris-buffered saline solution/Tween (TBST) containing 10% blocking reagent at 4° C. After the incubation, membrane was washed three times in TBST and incubated with secondary antibody for 1 h at room temperature. After three-time washing in TBST, membrane was developed using a chemiluminescence assay system (Roche) and exposed to Kodak films. Relative protein levels were quantified by Image J program.

In test [2] the test system is XBP1s. Nature of the test: XBP1s levels in Ad-XBP1s-infected Fao cells. It counts as cell-based. The conditions noted are these: Ad-XBP1s-infected Fao cells (rat hepatoma). How it is done: as §1
as §2, with “Ad-XBP s and Ad-Cre were generated as described previously (Ozcan, L., et al. (2009) Cell metabolism 9:35-51). For infection, cells were incubated with adenovirus in reduced volume of medium containing 1% FBS and antibiotics. Cells were gently rocked every 15 min for 1 h to increase efficiency of infection, and then fresh medium were added and cells were incubated for additional 15 h or 23 h.” left out
Western blot analysis was performed as previously described (Ozcan, L., et al. (2009) Cell metabolism 9:35-51). […] Relative protein levels were quantified by Image J program.

For test [3], the system named is XBP1s. Nature of the test: XBP1s protein degradation after cycloheximide. It counts as cell-based, mouse. The following applies: anisomycin 25 ng/ml two hours, then cycloheximide 10 μg/ml, vs vehicle. How it is done:
MEF cells were infected with Ad-XBP1s. After 24 h post-infection, cells were treated with anisomycin at 25 ng/ml or vehicle (DMSO) for 2 h. Translation […] inhibitor cycloheximide (10 μg/ml, Sigma) was added to the medium. Cells were flash frozen in liquid nitrogen at various time points. Protein levels were determined via immunoblotting.

In test [4] the test system is XBP1s mRNA. Put plainly: XBP1s mRNA levels and stability (Q-PCR, actinomycin D). It counts as cell-based, mouse. How it is done:
Total RNA was extracted from cells or animal tissues using Trizol reagent (Invitrogen) and transcribed into cDNA using cDNA synthesis kit (Bio-Rad). The gene expression analysis was performed with iQ5 Multicolor Real-Time PCR Detection System (Bio-Rad) with SYBR Green Supermix (Bio-Rad). The mRNA level was normalized to 18S as a house keeping gene. The primer sequences used were:
For mRNA stability determination, MEF cells were infected with Ad-XBP1s. Sixteen hour after the infection, cells were treated with anisomycin (25 ng/ml) or vehicle (DMSO) for 1 h. Actinomycin D (10 μg/ml, Sigma) was added to the medium. Cells were flash frozen in liquid nitrogen at various time points. mRNA levels were determined via Q-PCR.

The subject of test [5] is p38 MAPK. Nature of the test: p38 MAPK phosphorylation in anisomycin-treated knock-out cells. It counts as cell-based. The source says: It is known that MAPK kinase kinase (MKK) 4 and 7 are upstream kinases responsible for JNK activation (Tournier, C., et al. (2001) Genes Dev 15:1419-1426; Brancho, D., et al. (2003) Genes Dev 17:1969-1978) and anisomycin or TNFα cannot activate JNK in MKK4 and 7 double knock out cells (MKK4,7^−/−) (Tournier, C., et al. (2001) Genes Dev 15:1419-1426; Schaeffer, H. J. & Weber, M. J. (1999) Mol Cell Biol 19:2435-2444). In order to determine whether XBP1s can be regulated by anisomycin treatment in MKK4,7^−/− cells, these cells, along with their controls, were treated with anisomycin after XBP is expression. […] Furthermore, the experiments were repeated in JNK1,2^−/− and MKK4,7^−/− cells with TNFα. […] Finally, an MKK7-JNK1 fusion protein, previously shown to be a specific activator of JNK (Lei, K., et al. (2002) Mol Cell Biol 22:4929-4942), was used to investigate whether activation of JNK alone can have effect on XBP1s.

Consider `COc1ccc(C[C@H]2NC[C@H](O)[C@H]2OC(C)=O)cc1` [anisomycin], for which the XBP1s protein levels result in test [1] (Ad-XBP1s-infected MEFs, increasing doses, two hours) is “robust increase in XBP1s protein levels”; in test [1] (Ad-XBP1s-infected MK2−/− cells vs control cells), “dramatically reduced”; in test [1] (JNK1,2−/− cells), “significant increase in XBP is protein”. The XBP1s levels entry in test [1] (Ad-XBP1s-infected MKK3,6−/− cells) is recorded as “no increase in XBP1s levels”; in test [1] (Ad-XBP1s-infected p38α−/− cells), “lacked the ability to upregulate XBP1s levels”; in test [1] (MKK4,7−/− cells) it was “dramatically increased XBP1s levels”; in test [2] it was “dramatically upregulating their XBP1s levels”. Also, the “XBP1s proteins in Ad-LacZ-infected control cells” value in test [1] (up to 25 ng/ml anisomycin) was “No upregulation of XBP1s proteins”. In test [3], the “degradation rate of XBP1s protein” value is listed as “No differences in the degradation rate of XBP1s protein”. Besides, the “enhanced stability of XBP1s mRNA” value in test [4] (MK2−/− cells, anisomycin 25 ng/ml) is reported as “completely lost”. Also, the “XBP1s mRNA stability” value in test [4] (TTP−/− cells, anisomycin 25 ng/ml one hour, actinomycin D 10 μg/ml) is “capable of increasing XBP1s mRNA stability”. In test [4] (XBP1s expressing control cells, one hour), the “XBP1s mRNA levels” value is recorded as “dramatic increase in mRNA of XBP1s; also recorded: increased the mRNA levels of XBP1s in a dose dependent manner”. Also, the “p38 MAPK phosphorylation” value in test [5] (JNK1,2−/− cells) is given as “marked increase in p38 MAPK phosphorylation”. In test [5] (MKK4,7−/− cells), the “p38 MAPK activation” value is recorded as “significantly increased”.
